# Test results taken from patent publication US20160200847A1, “CLICKABLE POLYMERS AND GELS FOR MICROARRAY AND OTHER APPLICATIONS” (priority 2014, published 2016).
# Molecular target: T1, Concanavalin A (ConA) (Canavalia ensiformis, UniProt P02866)
# T1 construct: purchased Sigma Aldrich
# Assay: Glycan microarray incubated with biotinylated ConA, Cy3-streptavidin fluorescence detection
# Format: binding
# Settings: spotted at 50 μM; 100 ng/ml (0.943 nM) biotinylated ConA; Cy3-labelled streptavidin
# Method: Four hundreds pL of each glycan was spotted at 10 μM or 50 μM concentration from an aqueous solution of […] (2.5 mM) and ascorbic acid (12.5 mM). A α-mannoside (10) and β-galactoside (11) were used as positive and negative controls. The immobilization reaction took place during an overnight incubation in a humid chamber at room temperature. The printed slides were sequentially washed with PBS buffer for 10 minutes with DI water and dried by a nitrogen stream. The arrayed slides were then incubated with biotinylated α-mannose-binding lectin Concanavalin A (ConA) in the lectin binding buffer (LBB, 50 mM HEPES, pH 7.4, 5 mM MnCl2, 5 mM CaCl2) in the presence of BSA (0.2 mg/ml). […] A final incubation of 1 h with 2 μg/ml Cyanine3 labelled Streptavidin in PBS (Phosphate Saline Buffer) in a humid chamber at room temperature under static condition enabled the fluorescence detection of the surface bound ConA by means of a scanner (ProScanArray scanner from Perkin Elmer, Boston, Mass., USA) used at 70% of laser power and 60% of photomultiplier (PMT) gain (FIG. 2b). The fluorescence intensities of 11 spot replicates were confirmed by three experiments that provided the same fluorescence intensities for each glycomimetic, with a standard deviation lower than 5%. […]
# The graph (b) of FIG. 2 reports the fluorescence intensity observed for different glycan spots. […]
smiles,measurement,value
"OC[C@H]1O[C@@H](O)[C@H](O)[C@@H](O)[C@H]1O [Glycomimetic 11, β-galactose]","interaction with ConA (spot fluorescence intensity, qualitative)",lack of fluorescence
